pIC50: −log10 of the molar value.
Legend:
[1] = target: T1, SYK kinase (Homo sapiens, UniProt P43405); experiment: SYK Assay (OMNIA Kinase Assay, SOX peptide fluorescence); format: biochemical; conditions: 1 mM ATP, 10 μM Omnia Peptide Substrate Tyr 7, 30° C., readings for 30 minutes; read-out: SYK Activities: IC50
T1 construct: purchased Invitrogen, Carlsbad
Description: In the assay OMNIA® KINASE ASSAY by Invitrogen Corporation (Carlsbad) the effect of invention of a compound on the phosphorylation is determined by measurement of fluorescence intensity of a chelation-enhanced fluorophore called SOX. Upon phosphorylation of the peptide by the kinase of interest, Mg2+ is chelated to form a bridge between the SOX moiety and the phosphate group that is transferred to the specific tyrosine on the peptide. The fluorescence intensity is directly proportional to the amount of peptide phosphorylation.
To the wells of an 384 well small volume plate (Greiner, Frickenhausen) are added (i) the compound under test in 5% DMSO/distilled water (2 μl), (ii) 16 μl of the master mix containing ATP, DTT, Kinase Reaction Buffer, Omina Peptide Substrate Tyr 7 resulting in a final concentration of 1 mM ATP, 0.2 mM DTT and 10 μM Peptide Substrate.
The Master Mix and the assay plate was incubated to reaction temperature before the measurement (30° C.). The reaction was started with addition of (iii) 2 μl 4 μg/ml SYK kinase (Invitrogen, Carlsbad). During measurement fluorescence intensity readings were collected using a TECAN M1000 at a wavelength of λex 360/λem 485 nm every 30 s for 30 minutes. The reaction velocity was plotted versus the inhibitor concentration to determine the IC50 using XLFit 5.0 (IDBS, Guildford) to fit to a sigmoidal dose response curve.

[2] = target: LRRK2 (Homo sapiens, UniProt Q5S007); experiment: LRRK2-LRRK2 G2019S-Assay (LanthaScreen Eu Kinase Binding Assay); conditions: 5 nM LRRK2, 10 nM tracer 236, 2 nM EU-Anti-GST antibody, 1 h at RT; read-out: LRRK2 Activities: IC50
Outline: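 In a TR-FRET tracer displacement assay, LRRK2 or its mutants at 5 nM were mixed with 2 nM Eu-anti-GST antibody and 10 nM tracer 236 in kinase buffer A for 1 h at RT. The 665/615 nm emission ratio was plotted against inhibitor concentration, and IC50 came from a variable-slope sigmoidal fit.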

Chain of LRRK2 (Q5S007 970-2527 limits assumed): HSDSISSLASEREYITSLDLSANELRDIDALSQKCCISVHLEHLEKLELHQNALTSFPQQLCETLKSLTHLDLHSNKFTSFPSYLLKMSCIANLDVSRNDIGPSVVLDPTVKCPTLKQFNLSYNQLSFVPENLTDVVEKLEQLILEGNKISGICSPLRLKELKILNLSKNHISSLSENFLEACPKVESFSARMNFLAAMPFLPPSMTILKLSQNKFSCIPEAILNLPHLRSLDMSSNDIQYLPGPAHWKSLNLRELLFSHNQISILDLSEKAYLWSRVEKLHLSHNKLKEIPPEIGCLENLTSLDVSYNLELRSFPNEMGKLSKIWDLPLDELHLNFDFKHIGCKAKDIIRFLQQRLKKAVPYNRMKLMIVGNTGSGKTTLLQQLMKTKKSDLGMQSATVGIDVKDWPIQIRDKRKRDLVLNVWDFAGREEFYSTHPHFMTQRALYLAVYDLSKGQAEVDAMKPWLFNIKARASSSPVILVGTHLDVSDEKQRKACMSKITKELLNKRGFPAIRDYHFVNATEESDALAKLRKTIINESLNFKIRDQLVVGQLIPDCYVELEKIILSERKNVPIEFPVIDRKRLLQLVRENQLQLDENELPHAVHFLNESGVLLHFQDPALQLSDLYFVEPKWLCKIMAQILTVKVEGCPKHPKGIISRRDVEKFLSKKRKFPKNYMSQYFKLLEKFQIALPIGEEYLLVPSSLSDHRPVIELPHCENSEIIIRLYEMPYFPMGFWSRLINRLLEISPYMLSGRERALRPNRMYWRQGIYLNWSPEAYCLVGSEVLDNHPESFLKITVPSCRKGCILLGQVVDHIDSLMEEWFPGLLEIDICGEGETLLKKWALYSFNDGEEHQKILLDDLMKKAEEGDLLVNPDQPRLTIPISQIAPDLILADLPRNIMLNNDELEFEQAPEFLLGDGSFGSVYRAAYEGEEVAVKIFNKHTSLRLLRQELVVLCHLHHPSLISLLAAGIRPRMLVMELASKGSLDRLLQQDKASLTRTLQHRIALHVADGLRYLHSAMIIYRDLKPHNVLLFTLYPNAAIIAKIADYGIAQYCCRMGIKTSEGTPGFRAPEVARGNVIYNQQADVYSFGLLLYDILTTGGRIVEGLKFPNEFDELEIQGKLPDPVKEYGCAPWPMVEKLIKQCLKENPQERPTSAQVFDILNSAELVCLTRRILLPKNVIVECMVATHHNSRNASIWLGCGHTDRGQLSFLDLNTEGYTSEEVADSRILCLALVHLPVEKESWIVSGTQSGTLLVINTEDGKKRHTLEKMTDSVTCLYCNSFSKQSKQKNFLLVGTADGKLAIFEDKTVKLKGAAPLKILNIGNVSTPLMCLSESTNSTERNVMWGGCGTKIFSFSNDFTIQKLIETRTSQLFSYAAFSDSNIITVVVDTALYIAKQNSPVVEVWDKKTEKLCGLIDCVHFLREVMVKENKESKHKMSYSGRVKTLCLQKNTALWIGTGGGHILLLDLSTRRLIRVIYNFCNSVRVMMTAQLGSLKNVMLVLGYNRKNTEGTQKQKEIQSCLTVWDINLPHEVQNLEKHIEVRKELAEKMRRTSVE

Row | Structure (SMILES) | pIC50 [1] | pIC50 [2]
1 | CN1CCN(C2CCN(c3ccc(Nc4nc5cccc(F)c5c5cn[nH]c45)cc3)CC2)CC1 [Example 1, 9-fluoro-N-(4-(4-(4-methylpiperazin-1-yl)piperidin-1-yl)phenyl)-3H-pyrazolo[3,4-c]quinolin-4-amine] | 6.00 to 7.00 | 7.00 to 8.00
2 | COc1ccc2nc(Nc3ccc(N4CCC(N5CCN(C)CC5)CC4)cc3)c3n[nH]cc3c2c1 [Example 3, 8-methoxy-N-(4-(4-(4-methylpiperazin-1-yl)piperidin-1-yl)phenyl)-2H-pyrazolo[3,4-c]quinolin-4-amine] | 6.00 to 7.00 | 7.00 to 8.00
3 | COc1ccc2nc(Nc3ccc(C(=O)N4CCC(N5CCN(C)CC5)CC4)cc3)c3n[nH]cc3c2c1 [Example 6, (4-((8-methoxy-2H-pyrazolo[3,4-c]quinolin-4-yl)amino)phenyl)(4-(4-methylpiperazin-1-yl)piperidin-1-yl)methanone] | 6.00 to 7.00 | 7.00 to 8.00
4 | Fc1cccc2nc(Nc3ccc(N4CCN(C5CC5)CC4)cc3)c3[nH]ncc3c12 [Example 10, N-(4-(4-cyclopropylpiperazin-1-yl)phenyl)-9-fluoro-3H-pyrazolo[3,4-c]quinolin-4-amine] | 6.00 to 7.00 | 6.00 to 7.00
5 | COc1cccc2nc(Nc3ccc(N4CCC(N5CCN(C)CC5)CC4)cc3)c3[nH]ncc3c12 [Example 21, 9-methoxy-N-(4-(4-(4-methylpiperazin-1-yl)piperidin-1-yl)phenyl)-3H-pyrazolo[3,4-c]quinolin-4-amine] | 6.00 to 7.00 | 7.00 to 8.00
6 | COc1ccc2nc(Nc3ccc(CN4CCC(N5CCN(C)CC5)CC4)cc3)c3n[nH]cc3c2c1 [Example 22, 8-methoxy-N-(4-((4-(4-methylpiperazin-1-yl)piperidin-1-yl)methyl)phenyl)-2H-pyrazolo[3,4-c]quinolin-4-amine] | 6.00 to 7.00 | 6.00 to 7.00
7 | O=C1CCc2ccc(Nc3nc4c(F)cccc4c4cn[nH]c34)cc2N1 [Example 54, 7-((6-fluoro-3H-pyrazolo[3,4-c]quinolin-4-yl)amino)-3,4-dihydroquinolin-2(1H)-one] | 6.00 to 7.00 | 
8 | COc1cccc2nc(Nc3cnn(C4CCOCC4)c3)c3[nH]ncc3c12 [Example 102, 9-methoxy-N-(1-(tetrahydro-2H-pyran-4-yl)-1H-pyrazol-4-yl)-3H-pyrazolo[3,4-c]quinolin-4-amine] | 6.00 to 7.00 | 
9 | CN1CCC(n2cc(Nc3nc4ccc(S(C)(=O)=O)cc4c4cn[nH]c34)cn2)CC1 [Example 114, N-(1-(1-methylpiperidin-4-yl)-1H-pyrazol-4-yl)-8-(methylsulfonyl)-3H-pyrazolo[3,4-c]quinolin-4-amine] | > 8.00 | 
10 | CC(=O)N1CCC(n2cc(Nc3nc4ccc(S(C)(=O)=O)cc4c4cn[nH]c34)cn2)CC1 [Example 115, 1-(4-(4-((8-(methylsulfonyl)-3H-pyrazolo[3,4-c]quinolin-4-yl)amino)-1H-pyrazol-1-yl)piperidin-1-yl)ethan-1-one] | > 8.00 | 
11 | COCCn1cc(Nc2nc3cccc(OC)c3c3c[nH]nc23)cn1 [Example 116, 9-methoxy-N-(1-(2-methoxyethyl)-1H-pyrazol-4-yl)-2H-pyrazolo[3,4-c]quinolin-4-amine] | 6.00 to 7.00 | 
12 | COc1cccc2nc(Nc3cnn(C4CCN(C(C)=O)CC4)c3)c3[nH]ncc3c12 [Example 117, 1-(4-(4-((9-methoxy-3H-pyrazolo[3,4-c]quinolin-4-yl)amino)-1H-pyrazol-1-yl)piperidin-1-yl)ethan-1-one] | 6.00 to 7.00 | 
13 | COc1ccc2nc(Nc3cnn(C4CCN(C)CC4)c3)c3n[nH]cc3c2c1 [Example 151, 8-methoxy-N-(1-(1-methylpiperidin-4-yl)-1H-pyrazol-4-yl)-2H-pyrazolo[3,4-c]quinolin-4-amine] | 7.00 to 8.00 | 
14 | COc1ccc2nc(Nc3cnn(C4CCN(C(C)=O)CC4)c3)c3n[nH]cc3c2c1 [Example 152, 1-(4-(4-((8-methoxy-2H-pyrazolo[3,4-c]quinolin-4-yl)amino)-1H-pyrazol-1-yl)piperidin-1-yl)ethan-1-one] | 7.00 to 8.00 | 
15 | COCCn1cc(Nc2nc3ccc(S(C)(=O)=O)cc3c3cn[nH]c23)cn1 [Example 153, N-(1-(2-methoxyethyl)-H-pyrazol-4-yl)-8-(methylsulfonyl)-3H-pyrazolo[3,4-c]quinolin-4-amine] | 7.00 to 8.00 | 
16 | Cc1c(Nc2nc3ccc(S(C)(=O)=O)cc3c3cn[nH]c23)cnn1C(C)C [Example 218, N-(1-isopropyl-5-methyl-1H-pyrazol-4-yl)-8-(methylsulfonyl)-3H-pyrazolo[3,4-c]quinolin-4-amine] | 6.00 to 7.00 | 

Row | Structure (SMILES) | pIC50 [1] | pIC50 [2]
17 | COCCn1cc(Nc2nc3ccc(S(C)(=O)=O)cc3c3cn[nH]c23)c(C#N)n1 [Example 248, 1-(2-methoxyethyl)-4-((8-(methylsulfonyl)-3H-pyrazolo[3,4-c]quinolin-4-yl)amino)-1H-pyrazole-3-carbonitrile] | 6.00 to 7.00 | 
18 | COc1ccc2nc(Nc3cnn(CCF)c3)c3[nH]ncc3c2c1 [Example 291, N-(1-(2-fluoroethyl)-1H-pyrazol-4-yl)-8-methoxy-3H-pyrazolo[3,4-c]quinolin-4-amine] | 6.00 to 7.00 | 
19 | COc1cc(OC)c2nc(Nc3cnn(C(C)C)c3)c3[nH]ncc3c2c1 [Example 294, N-(1-isopropyl-1H-pyrazol-4-yl)-6,8-dimethoxy-3H-pyrazolo[3,4-c]quinolin-4-amine] | 6.00 to 7.00 | 
20 | COc1cc(OC)c2nc(Nc3cnn(C4CCN(C(C)(C)C)CC4)c3)c3[nH]ncc3c2c1 [Example 295, N-(1-(1-(tert-butyl)piperidin-4-yl)-1H-pyrazol-4-yl)-6,8-dimethoxy-3H-pyrazolo[3,4-c]quinolin-4-amine] | 7.00 to 8.00 | 
21 | Cc1nn(CC(C)(C)O)cc1Nc1nc2ccc(S(C)(=O)=O)cc2c2c[nH]nc12 [Example 325, 2-methyl-1-(3-methyl-4-((8-(methylsulfonyl)-2H-pyrazolo[3,4-c]quinolin-4-yl)amino)-1H-pyrazol-1-yl)propan-2-ol] |  | 6.00 to 7.00
22 | Cc1c(Nc2nc3ccc(S(C)(=O)=O)cc3c3c[nH]nc23)cnn1CC(C)(C)O [Example 326, 2-methyl-1-(5-methyl-4-((8-(methylsulfonyl)-2H-pyrazolo[3,4-c]quinolin-4-yl)amino)-1H-pyrazol-1-yl)propan-2-ol] |  | 6.00 to 7.00
23 | CS(=O)(=O)c1ccc2nc(Nc3cc(C(=O)O)n[nH]3)c3n[nH]cc3c2c1 [Example 335, 5-((8-(methylsulfonyl)-2H-pyrazolo[3,4-c]quinolin-4-yl)amino)-1H-pyrazole-3-carboxylic acid] |  | 6.00 to 7.00
24 | CS(=O)(=O)c1ccc2nc(Nc3ccccc3O)c3n[nH]cc3c2c1 [Example 336, 2-((8-(methylsulfonyl)-2H-pyrazolo[3,4-c]quinolin-4-yl)amino)phenol] |  | 6.00 to 7.00
25 | C[C@H]1CCCN1c1cccc(Nc2nc3ccc(S(C)(=O)=O)cc3c3c[nH]nc23)c1 [Example 337, (S)—N-(3-(2-methylpyrrolidin-1-yl)phenyl)-8-(methylsulfonyl)-2H-pyrazolo[3,4-c]quinolin-4-amine] |  | 6.00 to 7.00
26 | CS(=O)(=O)c1ccc2nc(Nc3cnn(-c4ccccn4)c3)c3n[nH]cc3c2c1 [Example 341, 8-(methylsulfonyl)-N-(1-(pyridin-2-yl)-1H-pyrazol-4-yl)-2H-pyrazolo[3,4-c]quinolin-4-amine] | 6.00 to 7.00 | 
27 | CCN1C(=O)COc2ccc(Nc3nc4ccc(S(C)(=O)=O)cc4c4c[nH]nc34)cc21 [Example 342, 4-ethyl-6-((8-(methylsulfonyl)-2H-pyrazolo[3,4-c]quinolin-4-yl)amino)-2H-benzo[b][1,4]oxazin-3(4H)-one] |  | 7.00 to 8.00
28 | CS(=O)(=O)c1ccc2nc(Nc3ccc4c(c3)NC(=O)CO4)c3n[nH]cc3c2c1 [Example 343, 6-((8-(methylsulfonyl)-2H-pyrazolo[3,4-c]quinolin-4-yl)amino)-2H-benzo[b][1,4]oxazin-3(4H)-one] |  | 7.00 to 8.00
29 | COc1ccc2nc(Nc3cnn(C(C)C(=O)O)c3)c3n[nH]cc3c2c1 (centres unmarked) [Example 347, 2-(4-((8-methoxy-2H-pyrazolo[3,4-c]quinolin-4-yl)amino)-1H-pyrazol-1-yl)propanoic acid] |  | 6.00 to 7.00
30 | CS(=O)(=O)c1ccc2nc(Nc3ccc4c(c3)N(C(=O)C3CC3)CCC4)c3n[nH]cc3c2c1 [Example 350, cyclopropyl(7-((8-(methylsulfonyl)-2H-pyrazolo[3,4-c]quinolin-4-yl)amino)-3,4-dihydroquinolin-1(2H)-yl)methanone] |  | 6.00 to 7.00
31 | CS(=O)(=O)c1ccc2nc(Nc3ccc(N4CCOCC4)c(C#N)c3)c3n[nH]cc3c2c1 [Example 354, 5-((8-(methylsulfonyl)-2H-pyrazolo[3,4-c]quinolin-4-yl)amino)-2-morpholinobenzonitrile] | 7.00 to 8.00 | 
32 | Brc1cccc2c1nc(Nc1cnn(C3CCOCC3)c1)c1[nH]ncc12 [Example 355, 6-bromo-N-(1-(tetrahydro-2H-pyran-4-yl)-1H-pyrazol-4-yl)-3H-pyrazolo[3,4-c]quinolin-4-amine] | 7.00 to 8.00 | 

— patent US10752624B2, “Kinase inhibitors” (Origenis GmbH, priority 2012, dated 2020)
